According to ChEMBL document CHEMBL3526017, “Predicting the drug interaction potential of AMG 853, a dual antagonist of the D-prostanoid and chemoattractant receptor-homologous molecule expressed on T helper 2 cells receptors” (Drug Metab Dispos, 2012):

Assays:
Cytochrome P450 2C8 = biological target: T1, Cytochrome P450 2C8 (Homo sapiens, UniProt P10632); assay: Linear mixed inhibition of CYP2C8 in human liver microsomes assessed as paclitaxel 6-hydroxylation after 20 mins by LC-MS/MS analysis; type: ADME
T1 sequence (P10632 whole entry): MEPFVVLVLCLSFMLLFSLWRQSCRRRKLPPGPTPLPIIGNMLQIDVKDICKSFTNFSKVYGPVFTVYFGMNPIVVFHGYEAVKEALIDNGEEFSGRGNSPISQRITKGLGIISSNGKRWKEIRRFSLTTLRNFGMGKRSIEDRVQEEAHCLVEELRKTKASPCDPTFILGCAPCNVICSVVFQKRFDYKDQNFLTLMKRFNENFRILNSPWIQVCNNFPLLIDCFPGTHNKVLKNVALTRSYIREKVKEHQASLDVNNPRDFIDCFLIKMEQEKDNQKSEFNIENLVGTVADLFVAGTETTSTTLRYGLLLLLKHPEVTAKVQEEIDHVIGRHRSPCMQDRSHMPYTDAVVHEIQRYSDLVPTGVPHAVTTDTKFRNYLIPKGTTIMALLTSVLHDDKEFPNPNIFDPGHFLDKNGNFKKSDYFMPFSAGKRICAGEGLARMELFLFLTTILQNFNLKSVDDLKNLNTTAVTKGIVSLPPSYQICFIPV

[1] = biological target: UDP-glucuronosyltransferase 1A9 (Homo sapiens, UniProt O60656); assay: (§1) Drug metabolism assessed as human recombinant UGT1A9-mediated (2S,3S,4S,5R,6S)-6-(2-(4-(4-(tert-butylcarbamoyl)-2-(2-chloro-4-cyclopropylphenylsulfonamido)phenoxy)-5-chloro-2-fluorophenyl)acetoxy)-3,4,5-trihydroxytetrahydro-2H-pyran-2-carboxylic acid formation at 10 uM after 30 mins by LC-MS/MS analysis; type: ADME; settings: recombinant enzyme, 0.5 h
[2] = Drug metabolism in human liver microsomes assessed as CYP3A5*1/*1-mediated (2S,3S,4S,5R,6S)-6-(2-(4-(4-(tert-butylcarbamoyl)-2-(2-chloro-4-cyclopropylphenylsulfonamido)phenoxy)-5-chloro-2-fluorophenyl)acetoxy)-3,4,5-trihydroxytetrahydro-2H-pyran-2-carboxylic acid formation after 15 mins by LC-MS/MS analysis in presence of UDPGA; type: ADME; settings: 0.25 h
CYP1A2 = assay: Upregulation of CYP1A2 mRNA expression in human hepatocytes at 0.3 to 30 uM treated every 24 hrs for 2 days measured on day 5 relative to control; type: ADME, cell-based, Hepatocyte; settings: read-out: FC
[3] = biological target: UDP-glucuronosyltransferase 2B4 (Homo sapiens, UniProt P06133); assay: as §1, with “UGT2B4-mediated” for “UGT1A9-mediated”; type: ADME; settings: recombinant enzyme, 0.5 h
Cytochrome P450 2J2 = biological target: T2, Cytochrome P450 2J2 (Homo sapiens, UniProt P51589); assay: Drug metabolism assessed as recombinant CYP2J2 (unknown origin)-mediated 2-(5-chloro-4-(2-(2-chloro-4-cyclopropylphenylsulfonamido)-4-(1-hydroxy-2-methylpropan-2-ylcarbamoyl)phenoxy)-2-fluorophenyl)acetic acid formation at 10 uM after 30 mins by LC-MS/MS analysis; type: ADME; settings: recombinant enzyme, 0.5 h
T2 sequence (P51589 whole entry): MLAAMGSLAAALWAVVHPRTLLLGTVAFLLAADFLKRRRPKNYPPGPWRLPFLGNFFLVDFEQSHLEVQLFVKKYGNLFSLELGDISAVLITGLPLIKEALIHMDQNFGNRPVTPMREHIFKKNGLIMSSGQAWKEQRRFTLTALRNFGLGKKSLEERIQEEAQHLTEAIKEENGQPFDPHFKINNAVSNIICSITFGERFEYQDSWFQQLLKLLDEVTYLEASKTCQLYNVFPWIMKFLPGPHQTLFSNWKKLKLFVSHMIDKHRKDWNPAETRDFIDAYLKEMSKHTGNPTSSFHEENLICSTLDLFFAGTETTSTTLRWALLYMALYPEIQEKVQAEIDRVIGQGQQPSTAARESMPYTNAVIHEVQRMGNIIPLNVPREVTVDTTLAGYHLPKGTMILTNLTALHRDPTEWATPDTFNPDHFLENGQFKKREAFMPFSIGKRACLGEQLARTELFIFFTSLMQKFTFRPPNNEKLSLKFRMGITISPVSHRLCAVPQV

[4] = biological target: UDP-glucuronosyltransferase 1A6 (Homo sapiens, UniProt P19224); assay: as §1, with “UGT1A6-mediated” for “UGT1A9-mediated”; type: ADME; settings: recombinant enzyme, 0.5 h
Cytochrome P450 3A5 = Cytochrome P450 3A5 (Homo sapiens, UniProt P20815); assay: Drug metabolism assessed as recombinant CYP3A5 (unknown origin)-mediated 2-(5-chloro-4-(2-(2-chloro-4-cyclopropylphenylsulfonamido)-4-(1-hydroxy-2-methylpropan-2-ylcarbamoyl)phenoxy)-2-fluorophenyl)acetic acid formation at 10 uM after 30 mins by LC-MS/MS analysis; type: ADME; settings: recombinant enzyme, 0.5 h
[5] = biological target: UDP-glucuronosyltransferase 2B15 (Homo sapiens, UniProt P54855); assay: as §1, with “UGT2B15-mediated” for “UGT1A9-mediated”; type: ADME; settings: recombinant enzyme, 0.5 h
[6] = biological target: T3, UDP-glucuronosyltransferase 1A3 (Homo sapiens, UniProt P35503); assay: as §1, with “UGT1A3-mediated” for “UGT1A9-mediated”; type: ADME; settings: recombinant enzyme, 0.5 h
T3 sequence (P35503 whole entry): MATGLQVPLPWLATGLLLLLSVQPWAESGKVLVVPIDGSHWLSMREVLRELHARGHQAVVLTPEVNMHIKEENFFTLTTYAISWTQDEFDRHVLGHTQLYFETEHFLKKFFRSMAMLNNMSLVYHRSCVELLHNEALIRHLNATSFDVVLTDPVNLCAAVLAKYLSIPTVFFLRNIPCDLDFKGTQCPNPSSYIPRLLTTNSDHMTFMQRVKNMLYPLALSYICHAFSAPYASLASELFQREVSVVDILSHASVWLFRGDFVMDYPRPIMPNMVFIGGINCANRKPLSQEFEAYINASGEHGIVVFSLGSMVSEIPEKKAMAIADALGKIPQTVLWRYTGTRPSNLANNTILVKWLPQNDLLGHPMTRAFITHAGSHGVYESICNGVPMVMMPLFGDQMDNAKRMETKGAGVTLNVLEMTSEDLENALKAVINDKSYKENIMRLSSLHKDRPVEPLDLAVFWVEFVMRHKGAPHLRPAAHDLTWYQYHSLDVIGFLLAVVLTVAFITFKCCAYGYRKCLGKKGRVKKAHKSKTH

Cytochrome P450 3A4 = Cytochrome P450 3A4 (Homo sapiens, UniProt P08684); assay: Drug metabolism assessed as recombinant CYP3A4 (unknown origin)-mediated 2-(5-chloro-4-(2-(2-chloro-4-cyclopropylphenylsulfonamido)-4-(1-hydroxy-2-methylpropan-2-ylcarbamoyl)phenoxy)-2-fluorophenyl)acetic acid formation at 10 uM after 30 mins by LC-MS/MS analysis; type: ADME; settings: recombinant enzyme, 0.5 h
Liver microsome = assay: Drug metabolism in human liver microsomes assessed as 2-(5-chloro-4-(2-(2-chloro-4-cyclopropylphenylsulfonamido)-4-(1-hydroxy-2-methylpropan-2-ylcarbamoyl)phenoxy)-2-fluorophenyl)acetic acid formation at 2 uM after 60 mins by LC-MS/MS analysis in presence of ketoconazole; type: ADME; settings: 1 h
Cytochrome P450 3A7 = Cytochrome P450 3A7 (Homo sapiens, UniProt P24462); assay: Drug metabolism assessed as recombinant CYP3A7 (unknown origin)-mediated 2-(5-chloro-4-(2-(2-chloro-4-cyclopropylphenylsulfonamido)-4-(1-hydroxy-2-methylpropan-2-ylcarbamoyl)phenoxy)-2-fluorophenyl)acetic acid formation at 10 uM after 30 mins by LC-MS/MS analysis; type: ADME; settings: recombinant enzyme, 0.5 h
Sequence of Cytochrome P450 3A7 (P24462 whole entry): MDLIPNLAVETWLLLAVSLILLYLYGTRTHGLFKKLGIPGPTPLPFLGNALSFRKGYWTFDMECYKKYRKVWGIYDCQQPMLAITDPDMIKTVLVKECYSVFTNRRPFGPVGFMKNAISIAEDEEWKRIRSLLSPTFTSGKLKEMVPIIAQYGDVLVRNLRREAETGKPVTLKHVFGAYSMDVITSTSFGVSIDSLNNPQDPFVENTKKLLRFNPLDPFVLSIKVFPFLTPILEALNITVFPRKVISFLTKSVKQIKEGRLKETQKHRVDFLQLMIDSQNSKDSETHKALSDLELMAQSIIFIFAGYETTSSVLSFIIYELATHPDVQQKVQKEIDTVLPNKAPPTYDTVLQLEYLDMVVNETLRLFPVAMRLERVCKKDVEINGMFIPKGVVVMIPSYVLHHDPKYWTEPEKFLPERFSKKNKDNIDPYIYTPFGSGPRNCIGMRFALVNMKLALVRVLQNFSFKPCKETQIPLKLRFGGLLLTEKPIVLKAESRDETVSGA

Sequence of UDP-glucuronosyltransferase 2B4 (P06133 whole entry): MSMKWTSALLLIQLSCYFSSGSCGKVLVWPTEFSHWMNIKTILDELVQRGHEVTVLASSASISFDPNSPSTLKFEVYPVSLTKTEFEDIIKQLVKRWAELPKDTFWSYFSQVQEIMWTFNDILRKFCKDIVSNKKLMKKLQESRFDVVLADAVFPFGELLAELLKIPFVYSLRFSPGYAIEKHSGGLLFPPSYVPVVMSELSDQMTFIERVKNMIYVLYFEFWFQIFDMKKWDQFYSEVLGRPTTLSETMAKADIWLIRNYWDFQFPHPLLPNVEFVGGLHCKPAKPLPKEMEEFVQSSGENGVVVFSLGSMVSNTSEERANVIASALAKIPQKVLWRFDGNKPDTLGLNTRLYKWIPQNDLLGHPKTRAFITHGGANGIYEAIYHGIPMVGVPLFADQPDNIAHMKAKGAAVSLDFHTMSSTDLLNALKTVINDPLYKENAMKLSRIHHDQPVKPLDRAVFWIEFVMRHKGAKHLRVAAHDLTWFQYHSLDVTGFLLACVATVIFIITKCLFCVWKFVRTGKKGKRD
Sequence of UDP-glucuronosyltransferase 1A9 (O60656 whole entry): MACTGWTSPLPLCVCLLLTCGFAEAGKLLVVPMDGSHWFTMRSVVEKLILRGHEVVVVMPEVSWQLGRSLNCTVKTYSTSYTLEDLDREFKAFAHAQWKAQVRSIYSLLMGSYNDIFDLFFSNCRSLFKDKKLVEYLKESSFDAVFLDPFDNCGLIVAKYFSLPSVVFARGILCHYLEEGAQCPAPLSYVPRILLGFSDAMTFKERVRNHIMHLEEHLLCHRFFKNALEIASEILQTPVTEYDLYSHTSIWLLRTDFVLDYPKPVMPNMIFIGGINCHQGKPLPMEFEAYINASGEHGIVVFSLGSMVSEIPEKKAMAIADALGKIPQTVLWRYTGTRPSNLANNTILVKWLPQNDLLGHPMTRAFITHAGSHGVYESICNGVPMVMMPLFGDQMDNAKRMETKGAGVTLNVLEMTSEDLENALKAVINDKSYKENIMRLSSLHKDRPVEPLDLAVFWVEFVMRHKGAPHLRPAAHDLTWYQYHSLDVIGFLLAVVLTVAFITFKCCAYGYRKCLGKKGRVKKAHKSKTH
Sequence of UDP-glucuronosyltransferase 1A6 (P19224 whole entry): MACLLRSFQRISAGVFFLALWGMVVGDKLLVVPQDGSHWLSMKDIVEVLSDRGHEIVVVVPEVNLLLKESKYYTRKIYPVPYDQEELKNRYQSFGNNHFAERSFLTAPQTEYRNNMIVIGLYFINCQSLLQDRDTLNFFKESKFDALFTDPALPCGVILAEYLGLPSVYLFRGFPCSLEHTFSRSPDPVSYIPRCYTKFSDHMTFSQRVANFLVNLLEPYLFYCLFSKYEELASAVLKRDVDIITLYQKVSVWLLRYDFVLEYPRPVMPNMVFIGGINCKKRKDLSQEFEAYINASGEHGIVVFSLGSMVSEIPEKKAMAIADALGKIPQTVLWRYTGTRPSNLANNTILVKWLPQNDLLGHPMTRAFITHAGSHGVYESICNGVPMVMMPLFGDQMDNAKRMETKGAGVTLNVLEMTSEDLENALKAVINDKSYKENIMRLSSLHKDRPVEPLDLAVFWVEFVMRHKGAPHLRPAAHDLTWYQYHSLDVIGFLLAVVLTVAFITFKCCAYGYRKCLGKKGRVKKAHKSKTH
Sequence of Cytochrome P450 3A5 (P20815 whole entry): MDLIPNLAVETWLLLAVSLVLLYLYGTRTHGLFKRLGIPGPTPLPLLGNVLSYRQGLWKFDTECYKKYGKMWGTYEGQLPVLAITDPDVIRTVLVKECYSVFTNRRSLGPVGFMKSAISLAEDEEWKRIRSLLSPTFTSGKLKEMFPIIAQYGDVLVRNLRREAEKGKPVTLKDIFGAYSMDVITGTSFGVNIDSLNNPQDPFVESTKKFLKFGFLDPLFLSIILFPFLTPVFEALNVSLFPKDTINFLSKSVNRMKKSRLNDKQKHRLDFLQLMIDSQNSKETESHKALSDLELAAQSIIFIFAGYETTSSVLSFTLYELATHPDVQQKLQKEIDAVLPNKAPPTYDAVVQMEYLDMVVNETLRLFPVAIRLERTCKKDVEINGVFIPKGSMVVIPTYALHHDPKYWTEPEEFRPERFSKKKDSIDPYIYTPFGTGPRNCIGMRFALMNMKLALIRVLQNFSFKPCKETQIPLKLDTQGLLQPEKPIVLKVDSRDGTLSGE
Sequence of UDP-glucuronosyltransferase 2B15 (P54855 whole entry): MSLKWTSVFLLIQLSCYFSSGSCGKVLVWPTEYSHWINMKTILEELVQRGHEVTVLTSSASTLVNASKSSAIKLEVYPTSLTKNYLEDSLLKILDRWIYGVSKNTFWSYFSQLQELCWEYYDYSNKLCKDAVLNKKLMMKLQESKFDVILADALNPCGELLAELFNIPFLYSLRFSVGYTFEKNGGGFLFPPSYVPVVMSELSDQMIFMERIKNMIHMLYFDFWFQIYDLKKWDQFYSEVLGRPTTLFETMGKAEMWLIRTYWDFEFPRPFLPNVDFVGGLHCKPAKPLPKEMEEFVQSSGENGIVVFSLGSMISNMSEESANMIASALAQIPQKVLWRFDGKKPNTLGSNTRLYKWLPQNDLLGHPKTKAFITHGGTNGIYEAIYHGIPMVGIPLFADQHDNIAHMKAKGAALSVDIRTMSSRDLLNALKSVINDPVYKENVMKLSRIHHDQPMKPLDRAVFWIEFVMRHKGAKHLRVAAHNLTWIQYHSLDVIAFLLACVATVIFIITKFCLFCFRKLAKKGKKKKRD
Sequence of Cytochrome P450 3A4 (P08684 whole entry): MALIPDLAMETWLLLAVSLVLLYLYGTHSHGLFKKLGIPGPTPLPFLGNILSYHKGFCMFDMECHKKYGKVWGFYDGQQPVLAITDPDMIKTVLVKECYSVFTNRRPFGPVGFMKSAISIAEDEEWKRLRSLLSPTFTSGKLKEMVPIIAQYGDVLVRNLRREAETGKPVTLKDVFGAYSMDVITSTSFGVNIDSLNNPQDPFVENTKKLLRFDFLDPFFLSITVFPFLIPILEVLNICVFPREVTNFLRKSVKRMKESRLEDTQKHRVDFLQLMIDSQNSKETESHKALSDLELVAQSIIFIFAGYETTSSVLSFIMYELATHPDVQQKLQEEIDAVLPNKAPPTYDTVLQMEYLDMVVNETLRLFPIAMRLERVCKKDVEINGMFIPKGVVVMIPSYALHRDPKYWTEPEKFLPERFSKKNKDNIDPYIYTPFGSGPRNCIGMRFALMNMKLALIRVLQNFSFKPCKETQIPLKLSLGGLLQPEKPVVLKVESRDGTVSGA

| Compound | Ki (Cytochrome P450 2C8) [nM] | Drug metabolism [1] | Drug metabolism [2] | fold induction at 48 h, up to 30 µM (CYP1A2) | Drug metabolism [3] | Drug metabolism (Cytochrome P450 2J2) | Drug metabolism [4] | Drug metabolism (Cytochrome P450 3A5) | Drug metabolism [5] | Drug metabolism [6] | Drug metabolism (Cytochrome P450 3A4) | Drug metabolism (Liver microsome) | Drug metabolism (Cytochrome P450 3A7) |
| --- | --- | --- | --- | --- | --- | --- | --- | --- | --- | --- | --- | --- | --- |
| CC(C)(C)NC(=O)c1ccc(Oc2cc(F)c(CC(=O)O[C@@H]3O[C@H](C(=O)O)[C@@H](O)[C@H](O)[C@H]3O)cc2Cl)c(NS(=O)(=O)c2ccc(C3CC3)cc2Cl)c1 | 2700 |  |  |  |  |  |  |  |  |  |  |  |  |
| CC(C)(C)NC(=O)c1ccc(Oc2cc(F)c(CC(=O)O)cc2Cl)c(NS(=O)(=O)c2ccc(C3CC3)cc2Cl)c1 [VIDUPIPRANT] |  | metabolite_not_detected | metabolite_detected | 1.7 | metabolite_not_detected | metabolite_detected | metabolite_not_detected | metabolite_detected | metabolite_not_detected | metabolite_detected | metabolite_detected | metabolite_not_detected | metabolite_detected |
